Test results published in patent US7863476B1, “Multifunctional anionic surfactants” (Oil Chem Technologies, priority 2009, dated 2011).

Experiments:
Assay type in all cases: physicochemical
[1] = Brine solubilities of surfactant concentrates; conditions: 5.0% by weight surfactant concentrate, 30° C.; for Brine solubility, BRINE 1: Brine 1: NaCl 3.0%, CaCl2-2H2O 1.0%, MgCl2-6H2O 1.0%; for Brine solubility, BRINE 2: Brine 2: NaCl 1.0%; for Brine solubility, BRINE 3: Brine 3: NaCl 5.0%; for Brine solubility, BRINE 4: Brine 4: NaCl 10%; for Brine solubility, BRINE 5: Brine 5: NaCl 20%
Description: (§1) In all cases the surfactant formulation consisted of 30% by weight surfactant, 25% by weight ethylene glycol monobutyl ether (co-surfactant/solvent), and 45% by weight water. Also in all cases except where noted the surfactant formulation was added to the injection brine at a concentration of 0.10 weight percent. These examples use surfactants containing only ethylene oxide in the alcohol ether carboxylate although products containing propylene oxide and ethylene oxide give good results in certain applications.
(§2) Table II is the brine compositions that were used for the IFT testing to show the effect of total dissolved solids and divalent ion concentration on the IFT obtained using various surfactants.
Table III compares the solubilities obtained with 5.0% by weight of various surfactant concentrates in the 5 brines at 30° C.

[2] = Interfacial tension (IFT) by spinning drop interfacial tensiometer; conditions: 0.10 wt % surfactant, 95° C., spinning 1 hour; for IFT, BRINE 1: Brine 1: NaCl 3.0%, CaCl2-2H2O 1.0%, MgCl2-6H2O 1.0%; for IFT, BRINE 2: Brine 2: NaCl 1.0%; for IFT, BRINE 3: Brine 3: NaCl 5.0%; for IFT, BRINE 4: Brine 4: NaCl 10%; for IFT, BRINE 5: Brine 5: NaCl 20%
Description: as §1, §2
All IFTs were obtained using a University of Texas Model 500 spinning drop interfacial tensiometer after spinning at 95° C. for 1 hour.

Static adsorption test = test: Static adsorption test
Source text: Table VII compares the adsorption of the composition of this invention surfactant B with a 1:1 molar mixture of surfactant D and surfactant E to show the effectiveness of having both the sulfonate and ether carboxylate on one molecule. 0.2 wt % surfactant D and 0.2 wt % surfactant E alone were also included to correct for the amount of each of these surfactants adsorbed. All tests were done using 0.20 wt % total surfactant in Brine 2. The static adsorption was run by mixing 50.0 grams of surfactant solution with 10.0 grams of 200 mesh beach sand on a wrist action shaker for 16 hours and then determining the amount of surfactant remaining compared to the original amount added.

[3] = 0.20 wt % total surfactant in Brine 2, 16 hours

| Substance | Brine solubility, BRINE 1 [1] | Brine solubility, BRINE 2 [1] | Brine solubility, BRINE 3 [1] | Brine solubility, BRINE 4 [1] | Brine solubility, BRINE 5 [1] | IFT, BRINE 1 [2] [mN/m] | IFT, BRINE 2 [2] [mN/m] | IFT, BRINE 3 [2] [mN/m] | IFT, BRINE 4 [2] [mN/m] | IFT, BRINE 5 [2] [mN/m] | % adsorbed (Static adsorption test; [3]) [%] | amount adsorbed in mg surfactant/gram sand (Static adsorption test; [3]) [mg/g] | Amount remaining (Static adsorption test; of 0.100 g original wt, 0.20 wt % total surfactant in Brine 2, 50.0 g solution with 10.0 g sand, 16 hours) | Adsorbed (Static adsorption test; of 0.100 g original wt, 0.20 wt % total surfactant in Brine 2, 16 hours) |
| --- | --- | --- | --- | --- | --- | --- | --- | --- | --- | --- | --- | --- | --- | --- |
| Sodium salt of carboxylated oleyl alcohol with 2 moles of EO. [Surfactant C] | dis- | soluble | soluble | soluble | dis- | 0.769 | 0.070 | 0.090 | 0.122 | 0.256 | – | – | – | – |
| Sodium salt of carboxylated oleyl alcohol with 9 moles of EO. [Surfactant D] | soluble | soluble | soluble | soluble | soluble | 0.066 | 0.031 | 0.022 | 0.020 | 0.020 | 78 | 7.8 | 0.022 | 0.078 |
